Test results as given in patent US11459356B2, “Neuronal nicotinic acetylcholine receptor-targeting polypeptide and use thereof” (priority 2021, dated 2022).
Positions of bridges follow the written chain, without caps; N, C: chain ends. No end group written: not given here.

Tested on: human nAChR
Assay: Calcium response of nAChR-overexpressing CN21 cells pre-incubated with polypeptide
Type: cell-based
Settings: CN21 cells expressing human nAChR; polypeptide 10^-11-10^-5 M; 6 hours incubation; FIG. 5
Method: The bioactivity of polypeptide nAChR_BP was assessed by using […] expressing human nAChR. The CN21 cells were incubated in 12-well plates one day prior. After 25 hours of incubation, the media were removed and new media containing various concentrations (10^−11-10^−5 M) of the polypeptide were added to incubate the cells. Six hours later, concentrations of calcium ion were measured using a kit, such that the activity of nAChR_BP was determined in vitro by assessing the antagonism of the nAChR mediated increase of [Ca2+] in CN21 cells.

Substance: nAChR_BP: novel polypeptide with amino acid sequence of SEQ ID NO: 1 that targets neuronal nicotinic acetylcholine receptor (ACCLFNCHSWVGC; disulfide 2-13, 3-7)
- antagonism of the nAChR mediated increase of [Ca2+] in CN21 cells: capable of significantly inhibiting nAChRs
